Results published in patent US4366162A, “Aryl ethers of N-alkyl-piperidines and acid addition salts thereof” (AB Ferrosan, priority 1977, dated 1982).
≈ marks a conversion by molar mass, not a printed value. Read-outs that look alike come from different tables or passages of the source.

What was measured:
[1] = tested on: isolation induced aggressive behaviour; test: Isolation induced aggressive behaviour test (inhibition of aggression); assay type: in vivo, Male albino mice; settings: Mus musculus, sc, 1 h, read-out: ED50, Inhibition aggression test
Procedure: Male albino mice were used. Tests were conducted 60 minutes after subcutaneous drug administration.
(§1) The ED50 -values expressed in milligrams per kilogram body weight in the anti-amphetamine test, in the anti-apomorphine test and in the inhibition of aggression test are presented in Table I.

[2] = tested on: serotonin induced contraction of the rat ileum; test: Antiserotoninergic activity: serotonin induced contraction of the rat ileum; settings: serotonin 220 ng/ml, 50% inhibition of the contraction
Procedure: They show antiserotoninergic activity evaluated from the effects on serotonin (220 ng/ml) induced contraction of the rat ileum.

[3] = tested on: amphetamine induced behavioural stereotypies; test: Anti-amphetamine test: inhibition of compulsory gnawing and chewing responses to amphetamine; assay type: in vivo, Sprague Dawley female rats; settings: Rattus norvegicus, sc, read-out: ED50, Anti-amphetamine test
Procedure: Conventional types of neuroleptics are potent inhibitors of amphetamine induced behavioural stereotypies. One determines in Sprague Dawley female rats the ability of subcutaneously administered compounds to inhibit compulsory gnawing and chewing responses to a subcutaneous dose of 10 mg/kg of amphetamine administered half an hour after the compound to be tested. The new compounds of formula I are weak antagonists in this test.
as §1

[4] = tested on: apomorphine induced emesis; test: Anti-apomorphine test: antagonism of apomorphine induced emesis; assay type: in vivo, dogs; settings: Canis lupus familiaris, sc, read-out: ED50, Anti-apomorphine test
Procedure: All typical chloropromazine-like neuroleptics are powerful antagonists of apomorphine induced emesis in dogs by virtue of their blocking action on the chemo-emetic trigger zone. The compounds listed in Table I were administered subcutaneously. The animals were challenged half an hour after subcutaneous administration with a standard dose of 0.06 mg/kg of apomorphine hydrochloride (subcutaneously). […] The ED50 -values expressed in milligrams per kilogram body weight in the anti-amphetamine test, in the anti-apomorphine test and in the inhibition of aggression test are presented in Table I.

[5] = tested on: acetylcholine induced contraction of guinea pig ileum; test: Anticholinergic activity: acetylcholine induced contraction of guinea pig ileum; settings: acetylcholine 0.02 μg/ml, 50% inhibition of the contraction
[6] = tested on: histamine induced contraction of guinea pig ileum; test: Antihistaminic activity: histamine induced contraction of guinea pig ileum; settings: histamine 0.2 μg/ml, 50% inhibition of the contraction
[7] = male albino mice, 60 minutes after subcutaneous administration

| Compound | ED50 [1, 7] [mg/kg] | ED50, Antiseroto-ninergic activity [2] | ED50 ([3]; rats, subcutaneous, half an hour before 10 mg/kg amphetamine s.c.) [mg/kg] | ED50 ([4]; dogs, subcutaneous, half an hour before 0.06 mg/kg apomorphine hydrochloride s.c.) [mg/kg] | ED50, Anticholinergic activity [5] | ED50, Antihistaminic activity [6] | ED50 [1] [mg/kg] | ED50 [3] [mg/kg] | ED50 [4] [mg/kg] |
| --- | --- | --- | --- | --- | --- | --- | --- | --- | --- |
| COc1cc(C(C)=O)ccc1OCCCCN1CCC(O)(C(=O)c2ccc(F)cc2)CC1 [II] | 1.5 | – | – | – | – | – | – | – | – |
| CCC(=O)OC1(C(=O)c2ccc(F)cc2)CCN(CCCOc2ccc(C(C)=O)cc2OC)CC1 [III] | 2 | – | – | – | – | – | – | – | – |
| COc1cc(C(C)=O)ccc1OCCCN1CCC(O)(C(=O)c2ccc(F)cc2)CC1 [I, 1-[3-(p-acetyl-o-methoxyphenoxy)-propyl]-4-(p-fluorobenzoyl)-4-hydroxypiperidine] | 0.5 | 0,1 μg/ml | 20 | 7.1 | > 100 µg/mL | 0,06 μg/ml | – | – | – |
| CN(C)CCCN1c2ccccc2Sc2ccc(Cl)cc21 [Chlorpromazine, chlorpromazine] | – | 6 µg/mL (≈ 18.8 µM) | – | – | 1,7 μg/ml | 0,03 μg/ml | 0.4 | 1.2 | 0.7 |
| O=C(CCCN1CCC(O)(c2ccc(Cl)cc2)CC1)c1ccc(F)cc1 [Haloperidol, haloperidol] | – | – | – | – | – | – | 0.8 | 0.03 | – |
